The subject of experiment [1] is T47D. The experiment in a line: Antiproliferative activity against human T47D cells incubated for 72 hrs by microplate reader analysis. Format: functional, cell-based.
In experiment [2] the target is DNA topoisomerase 2-alpha (Homo sapiens) (UniProt P11388). The experiment is described as follows: Inhibition of human DNA topoisomerase 2 alpha at 20 uM using supercoiled pBR322 DNA as substrate incubated for 30 mins by EtBr staining based agarose gel electrophoresis method relative to control.
Experiment [3] deals with HeLa. The experiment in a line: Antiproliferative activity against human HeLa cells incubated for 72 hrs by microplate reader analysis. Format: functional, cell-based.
For experiment [4], the target named is T1, DNA topoisomerase 1 (Homo sapiens) (UniProt P11387).
T1 sequence (whole entry): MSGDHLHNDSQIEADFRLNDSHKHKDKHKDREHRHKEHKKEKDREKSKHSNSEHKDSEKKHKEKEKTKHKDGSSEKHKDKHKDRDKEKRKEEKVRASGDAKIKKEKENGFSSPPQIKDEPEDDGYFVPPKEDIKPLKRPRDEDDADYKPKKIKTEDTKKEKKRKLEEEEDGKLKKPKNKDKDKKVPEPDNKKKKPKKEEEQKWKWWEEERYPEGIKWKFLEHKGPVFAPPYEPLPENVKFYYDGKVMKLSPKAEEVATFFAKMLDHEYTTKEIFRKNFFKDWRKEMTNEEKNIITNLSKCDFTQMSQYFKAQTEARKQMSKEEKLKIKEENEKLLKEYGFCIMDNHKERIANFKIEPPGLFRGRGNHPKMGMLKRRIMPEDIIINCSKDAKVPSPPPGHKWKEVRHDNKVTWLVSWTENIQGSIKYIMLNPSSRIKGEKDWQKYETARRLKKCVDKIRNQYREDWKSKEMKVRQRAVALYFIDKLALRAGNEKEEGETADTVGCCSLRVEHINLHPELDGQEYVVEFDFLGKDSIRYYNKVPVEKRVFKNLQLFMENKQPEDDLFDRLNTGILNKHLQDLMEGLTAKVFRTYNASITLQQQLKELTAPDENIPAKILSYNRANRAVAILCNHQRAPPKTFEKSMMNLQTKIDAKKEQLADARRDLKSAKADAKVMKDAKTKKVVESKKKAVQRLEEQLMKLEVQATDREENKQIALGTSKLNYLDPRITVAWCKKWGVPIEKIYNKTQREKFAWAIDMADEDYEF
The experiment is described as follows: Inhibition of human DNA topoisomerase 1 at 100 uM using supercoiled pBR322 DNA as substrate incubated for 30 mins by EtBr staining based agarose gel electrophoresis method relative to control.

Experiment [5] has as its target DNA topoisomerase 2-alpha (Homo sapiens) (UniProt P11388). The experiment in a line: Inhibition of human DNA topoisomerase 2 alpha at 100 uM using supercoiled pBR322 DNA as substrate incubated for 30 mins by EtBr staining based agarose gel electrophoresis method relative to control.
The subject of experiment [6] is HCT-15. The experiment in a line: Antiproliferative activity against human HCT-15 cells incubated for 72 hrs by microplate reader analysis. Format: functional, cell-based. The note with it: HCT-15, 72 h.
The test system of experiment [7] is DU-145. The experiment is described as follows: Antiproliferative activity against human DU-145 cells incubated for 72 hrs by microplate reader analysis. Format: functional, cell-based. The note with it: DU-145, 72 h.
In experiment [8] the test system is Calf thymus DNA. The experiment in a line: Displacement of EtBr from calf thymus DNA assessed as reduction in fluorescence intensity at 5 to 40 uM preincubated with EtBr for 30 mins followed by compound addition and measured after 30 mins by microplate reader analysis. It counts as nucleic-acid assay. The following applies: Bos taurus, dose 5-40 µM.
The target in experiment [9] is DNA topoisomerase 2-alpha (Homo sapiens) (UniProt P11388). The experiment in a line: Poison activity at topoisomerase 2 alpha in human HCT-15 cells at 20 uM incubated for 24 hrs by alkaline comet assay. Format: cell-based.
Experiment [10] has the same target. The experiment is described as follows: Catalytic inhibition of human DNA topoisomerase 2 alpha expressed in baculovirus infected insect cells assessed as reduction in linear DNA formation at 200 to 500 uM using supercoiled pBR322 DNA as substrate incubated for 30 mins by agarose gel electrophoresis. The following applies: dose 200-500 µM.

The source made the active and inactive calls. The calls are words filed in the database; no cut-off is given here.

These results are taken from ChEMBL document CHEMBL5325474, “Di-indenopyridines as topoisomerase II-selective anticancer agents: Design, synthesis, and structure-activity relationships” (Bioorg Med Chem, 2023).

Chain of DNA topoisomerase 2-alpha (Homo sapiens) (P11388 whole entry): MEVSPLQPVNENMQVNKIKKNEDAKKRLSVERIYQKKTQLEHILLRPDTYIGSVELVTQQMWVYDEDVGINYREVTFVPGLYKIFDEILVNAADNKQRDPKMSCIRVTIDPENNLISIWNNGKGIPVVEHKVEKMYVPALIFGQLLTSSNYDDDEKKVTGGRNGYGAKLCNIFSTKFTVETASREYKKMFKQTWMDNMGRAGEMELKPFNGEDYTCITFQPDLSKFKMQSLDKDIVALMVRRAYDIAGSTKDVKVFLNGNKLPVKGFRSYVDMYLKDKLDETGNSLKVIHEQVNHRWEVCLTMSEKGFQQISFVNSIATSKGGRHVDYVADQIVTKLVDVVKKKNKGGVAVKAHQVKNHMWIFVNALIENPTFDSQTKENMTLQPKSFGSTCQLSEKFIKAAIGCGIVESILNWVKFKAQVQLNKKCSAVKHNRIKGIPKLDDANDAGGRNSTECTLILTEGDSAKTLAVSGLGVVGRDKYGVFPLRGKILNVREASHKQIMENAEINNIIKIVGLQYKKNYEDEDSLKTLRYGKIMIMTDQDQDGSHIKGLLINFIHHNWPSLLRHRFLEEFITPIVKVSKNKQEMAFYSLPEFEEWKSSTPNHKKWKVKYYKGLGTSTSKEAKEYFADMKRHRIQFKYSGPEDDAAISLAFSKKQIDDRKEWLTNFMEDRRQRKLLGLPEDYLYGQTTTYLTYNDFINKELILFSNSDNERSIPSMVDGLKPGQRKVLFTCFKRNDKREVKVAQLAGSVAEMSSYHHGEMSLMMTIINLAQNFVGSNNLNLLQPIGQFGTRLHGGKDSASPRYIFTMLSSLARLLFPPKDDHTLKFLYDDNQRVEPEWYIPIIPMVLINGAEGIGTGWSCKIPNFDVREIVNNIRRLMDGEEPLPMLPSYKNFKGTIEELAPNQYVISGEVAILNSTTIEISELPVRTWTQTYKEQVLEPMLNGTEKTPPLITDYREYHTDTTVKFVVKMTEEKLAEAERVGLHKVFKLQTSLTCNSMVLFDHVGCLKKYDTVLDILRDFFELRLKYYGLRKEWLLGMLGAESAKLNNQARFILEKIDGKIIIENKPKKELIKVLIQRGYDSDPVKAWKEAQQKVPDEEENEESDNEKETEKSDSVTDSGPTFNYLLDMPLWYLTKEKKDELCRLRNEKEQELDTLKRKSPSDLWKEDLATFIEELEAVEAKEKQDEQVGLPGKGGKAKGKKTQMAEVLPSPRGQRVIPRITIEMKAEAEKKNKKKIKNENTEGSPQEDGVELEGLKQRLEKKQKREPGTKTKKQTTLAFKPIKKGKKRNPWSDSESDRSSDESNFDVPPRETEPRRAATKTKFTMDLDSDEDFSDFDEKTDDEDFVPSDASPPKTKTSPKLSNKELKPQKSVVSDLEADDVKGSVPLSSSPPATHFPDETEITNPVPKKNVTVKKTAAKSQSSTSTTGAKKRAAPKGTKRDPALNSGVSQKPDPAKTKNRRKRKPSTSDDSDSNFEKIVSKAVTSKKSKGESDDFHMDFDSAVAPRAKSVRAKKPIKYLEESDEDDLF

As a reminder, the IC50 is the concentration at which inhibition is half-maximal. Read a low IC50 as greater potency in that assay. For orientation: inhibition means the percentage by which the read-out fell short of the control. With `Oc1cccc2c1-c1nc3c(c(-c4ccccc4OC(F)(F)F)c1C2)Cc1cccc(O)c1-3`, the IC50 in experiment [1] turned out to be 0.05 µM; in [3], 3.23 µM; in experiment [6], 0.93 µM; in experiment [7] it was 0.87 µM. Besides, the inhibition in [2] was 1.6%; in experiment [4] it was -0%; in [5] it was 84.8%.

For `Oc1cccc(-c2c3c(nc4c2Cc2c(O)cccc2-4)-c2cccc(O)c2C3)c1`, the IC50 in experiment [1], in experiment [3], in experiment [6] and in experiment [7] was above 50 µM in each case. The inhibition in experiment [4] was -0%; in experiment [5], 21.2%.

For `Oc1ccc(-c2c3c(nc4c2Cc2c(F)cccc2-4)-c2cccc(F)c2C3)cc1`, the 50% inhibitory concentration (IC50) in [1], in [3], in experiment [6] and in experiment [7] was above 50 µM in each case. The inhibition was 2.5% in [2], -0% in experiment [4] and 41.5% in [5].

`COc1cc(NS(C)(=O)=O)ccc1Nc1c2ccccc2nc2ccccc12`: the outcome in experiment [8] was Active.

With `Oc1cccc2c1Cc1c-2nc2c(c1-c1ccco1)Cc1c(O)cccc1-2`, the outcome in experiment [9] and in [8] was inactive. Besides, the IC50 in experiment [1] came out at 4.16 µM; in experiment [3], 9.63 µM; in [6] it was 1.71 µM; in experiment [7], 5.23 µM. For the same compound, the inhibition result in [10] is “Active”. Moreover, the results for the inhibition in [2], in experiment [4] and in experiment [5] were 100%, -0% and 100%, respectively.

In the case of `c1ccc(-c2c3c(nc4c2Cc2ccccc2-4)-c2ccccc2C3)cc1`, the IC50 in experiment [1], in experiment [3], in experiment [6] and in [7] was above 50 µM each time. The inhibition is -0% in experiment [4] and 2.6% in [5].

For `Oc1ccc2c(c1)Cc1c-2nc2c(c1-c1cccc(Cl)c1)Cc1cc(O)ccc1-2`, the IC50 in [1], in experiment [3], in [6] and in [7] was above 50 µM throughout. Further, the figures for the inhibition in [2], in experiment [4] and in experiment [5] were 3.5%, -0% and 91.4%, respectively.

For the compound `Oc1cccc2c1Cc1c-2nc2c(c1-c1ccccc1)Cc1c(O)cccc1-2`, the IC50 in experiment [1] worked out at 1.12 µM; in [3], 0.59 µM; in experiment [6], 1.51 µM; in [7], 3.66 µM. The results for the inhibition in [2], in experiment [4] and in experiment [5] were 1.6%, -0% and 100%, respectively.

Consider `Oc1cccc2c1-c1nc3c(c(-c4ccsc4)c1C2)Cc1cccc(O)c1-3`, for which the IC50 in experiment [1], in [3], in experiment [6] and in [7] was above 50 µM in each case. Besides, the figures for the inhibition in experiment [4] and in experiment [5] were -0% and 13.4%, respectively.

For the compound `Oc1ccc2c(c1)-c1nc3c(c(-c4cccs4)c1C2)Cc1ccc(O)cc1-3`, the IC50 in experiment [1] is 0.17 µM; in experiment [3], 0.93 µM; in experiment [6], 0.45 µM; in [7] it was 0.96 µM. The results for the inhibition in experiment [2], in experiment [4] and in experiment [5] were 4.7%, 0.4% and 59.5%, respectively.

Turning to `Oc1ccc2c(c1)Cc1c-2nc2c(c1-c1cccc(F)c1)Cc1cc(O)ccc1-2`, the IC50 in [1], in experiment [3], in experiment [6] and in [7] was above 50 µM each time. For the same compound, the values for the inhibition in [2], in [4] and in experiment [5] were 3.2%, -0% and 96.5%, respectively.

`Oc1ccc(-c2c3c(nc4c2Cc2ccc(C(F)(F)F)cc2-4)-c2cc(C(F)(F)F)ccc2C3)cc1`: the IC50 in experiment [1] is above 50 µM; in experiment [3], above 50 µM; in experiment [6], above 50 µM; in [7], 2.57 µM. Also, the inhibition in experiment [2] was found to be 4.5%; in experiment [4] it was 7.1%; in experiment [5], 51.4%.

`Oc1ccc2c(c1)-c1nc3c(c(-c4ccc(C(F)(F)F)cc4)c1C2)Cc1ccc(O)cc1-3`: the IC50 was 5.8 µM in [1], 10.5 µM in experiment [3], 9.06 µM in experiment [6] and 5.84 µM in experiment [7]. The inhibition in experiment [4] is -0%; in experiment [5], 0.1%.
